# Test system: cathelicidin LL-37 expression
# Assay: cathelicidin LL-37 immunolabeling of primary macrophages exposed for 18 hours to samples
# Type: cell-based, C57bl/6 mice
# Conditions: primary bone marrow-derived macrophages, 18 hours exposure
# Description: Primary macrophages were differentiated from mononuclear cells harvested from the bone marrow of C57bl/6 mice. A solution of these primary macrophages was divided into 18 wells, each of which was exposed for 18 hours to one of samples nos. 1-18; i.e., a composition comprising either a species of interest dissolved in cell growth media or a solubilized biological scaffold dissolved in cell growth media. […]
# After immunolabeling preparation, images were taken of the counterstained macrophages for three 20× fields for each well using a Zeus live-cell microscope. […] The light exposure time that produced the best images was determined, and the remaining samples were imaged at this light exposure time.
# After immunolabeling, each macrophage nucleus appeared blue in the immunolabeling images and cathelicidin LL-37 appeared green. The percentages of macrophages expressing cathelicidin LL-37 shown in FIG. 7 were calculated by dividing the number of cathelicidin LL-37-expressing cells in each image (determined by the number of blue nuclei located in close proximity to green cathelicidin LL-37) by the number of cells in each image (determined by the number of blue nuclei in each image). The identification of cathelicidin LL-37 and cell nuclei in the images was determined with the aid of CellProfiler, a […] software analyzer (available at http://www.cellprofiler.org). […]
smiles,measurement,setting,value
O=C(O)CCCO [4-hydroxybutyrate],"cathelicidin LL-37 expression (percent of cathelicidin LL-37 expressing cells, FIG. 6 and FIG. 7)","Example 1, 4HB 12 mM",strongly promoted
same,"cathelicidin LL-37 expression (percent of cathelicidin LL-37 expressing cells, FIG. 8 and FIGS. 9-16)","Example 2, concentration series of Table 2",effectively induce
